The results in this text go back to patent US8686113B2 (priority 2009, dated 2014).

Converted amounts (≈) assume the structure as drawn. Read-outs that look alike come from different tables or passages of the source. Non-standard residues stand in square brackets, D forms with d. Residues, ends and D or L forms follow the SMILES beside them. No end group written: not given here. Hyp = O=C(O)[C@@H]1C[C@@H](O)CN1; Orn = NCCC[C@H](N)C(=O)O

One data set has as its system E. coli 045-849 SENTRY. As to the method: (§1) The minimum inhibitory concentrations (MIC) of the antimicrobial peptides and peptide derivatives were determined in microdilution assays. These used a continuous peptide dilution in sterile flat-bottomed 96-well microtiter plates (polystyrene, Greiner Bio-One GmbH, Frickenhausen, Germany) and a total volume of 100 μL per well. The aqueous peptide or peptidomimetic solutions were diluted with 1% TSB water, to obtain a final concentration of 256 μg/mL. 50 μL of the peptide or peptidomimetic solution was pipetted into the first well of each series and stirred. From this solution, 50 μL was transferred to the second well, stirred and again 50 μL was transferred to the next well, and so on. A double dilution series is obtained, beginning at 256 μg/mL in the first well to 125 ng/mL in the twelfth well. The bacteria, e.g. E. coli BL21 A1, were cultured overnight at 37° C. in nutrient broth (NB, Carl Roth GmbH+Co. KG, Karlsruhe, Germany). 50 μL of a 5×10^6 bacteria/mL suspension in 1% TSB was added to each well of the microtiter plate and thus a final concentration of the peptides or peptidomimetics from 128 μg/mL (well 1) to 62.5 ng/mL (well 12) was established in each series. The plates were incubated at 37° C. for 20 h and then the absorption was measured at 595 nm with a TECAN microtiter plate spectrophotometer (Tecan Trading AG, Mannedorf, Switzerland). The MIC values of all peptides and peptidomimetics were determined in triplicate. Sterile water was used as negative control.
(§2) The tests were in this case carried out in Mueller-Hinton medium (¼ concentrated), which is equivalent to 1% TSB.

Data set [1] concerns S. typhimurium s5 (J. Weiser). Conditions: ¼ Muller-Hinton medium. How it is done:
as §1, §2

Another data set concerns P. mirabilis ATCC 7002. As to the method:
as §1, §2

In data set [2] the test system is S. typhimurium ATCC 14028. As to the method:
as §1, §2

The test system of data set [3] is S. typhimurium ATCC 700408. How it is done: as §1, §2
A further data set relates to K. pneumoniae 012-3131. How it is done: as §1, §2
The test system of data set [4] is P. aeruginosa 10 J. Wilson. As to the method: as §1, §2
The next data set relates to E. coli D31 J. Wilson. The settings on record: ¼ Muller-Hinton medium. How it is done:
as §1, §2

A further data set relates to P. vulgaris ATCC 6896. As to the method:
as §1, §2

Another data set relates to E. coli ATCC BAA-457. Conditions: ¼ Muller-Hinton medium. As to the method:
as §1, §2

The next data set has as its system K. pneumoniae ATCC 27799. Conditions: ATCC 27799. How it is done:
as §1, §2

Data set [5] deals with K. pneumoniae K6 ATCC 700603. Conditions: ATCC 700603. How it is done:
as §1, §2

Another data set concerns M. luteus 10240. In words: Growth inhibition assay (microdilution MIC). Conditions: 10240, 20 h. It counts as cell-based, Micrococcus luteus. The method, boiled down: (§3)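 Broth microdilution in 1% TSB with twofold peptide series, final 128 μg/mL to 62.5 ng/mL, against 5×10^6 bacteria/mL stock suspension added 1:1. Incubated 20 h at 37 °C, growth read by absorbance at 595 nm; MIC is the lowest concentration with no growth, determined in triplicate.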
For orientation: Broth dilution looks for growth in wells or tubes with falling amounts of substance.

A further data set has as its system E. coli BL21 A1. It counts as cell-based, Escherichia coli. Conditions: BL21, 20 h. The method, boiled down: as §3
For data set [6], the system named is Escherichia coli DSM 10233. As to the method:
as §1
(§4) The peptides shown in Table 8 were investigated for their MIC against pathogenic bacteria such as E. coli DSM 10233, K. pneumoniae DSM 681 and P. aeruginosa DSM 3227.

In data set [7] the test system is Pseudomonas aeruginosa DSM 3227. As to the method:
as §1, §4

The test system of data set [8] is Klebsiella pneumoniae DSM 681. As to the method:
as §1, §4

For data set [9] the following is noted: 25% aqueous mouse serum, 37° C., 75 μg/mL peptide.
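Wherever Half-life in 25% mouse serum is given: intact peptide left at successive time points measured by reversed-phase HPLC with an acetonitrile gradient in the supernatant after precipitation of serum proteins.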

As for `CC[C@H](C)[C@H](NC(=O)[C@H](CCCNC(=N)N)NC(=O)[C@H](CCCNC(=N)N)NC(=O)[C@@H]1CCCN1C(=O)[C@@H]1CCCN1C(=O)[C@H](CCCNC(=N)N)NC(=O)[C@@H]1CCCN1C(=O)[C@H](CCCNC(=N)N)NC(=O)[C@@H]1C[C@@H](O)CN1C(=O)[C@H](CC(C)C)NC(=O)[C@H](Cc1ccc(O)cc1)NC(=O)[C@@H]1CCCN1C(=O)[C@@H]1CCCN1C(=O)[C@H](CCCCN)NC(=O)[C@H](CC(=O)O)NC(=O)[C@@H](N)C(C)C)C(=O)N[C@@H](Cc1ccc(O)cc1)C(=O)N[C@@H](CC(N)=O)C(=O)N[C@@H](CCCNC(=N)N)C(N)=O` [compound 22] (H-VDKPPYL[Hyp]RPRPPRRIYNR-NH2), the “MIC E. coli 045-849 SENTRY” value with E. coli 045-849 SENTRY (045-849 SENTRY) came to 4 µg/mL (≈ 1.66 µM). Further, the “MIC S. typhimurium s5 (J. Weiser)” value in [1] is 8 µg/mL (≈ 3.33 µM). Besides, the “MIC P. mirabilis ATCC 7002” value against P. mirabilis ATCC 7002 (ATCC 7002) was 128 µg/mL (≈ 53.2 µM). For the same molecule, the “MIC S. typhimurium ATCC 14028” value in data set [2] came to 2 µg/mL (≈ 0.831 µM). Besides, the “MIC S. typhimurium ATCC 700408” value in data set [3] turned out to be 0.5 µg/mL (≈ 0.208 µM). Besides, the “MIC K. pneumoniae 012-3131” value with K. pneumoniae 012-3131 came to 4 µg/mL (≈ 1.66 µM). The “MIC P. aeruginosa 10 J. Wilson” value in [4] amounted to 16 µg/mL (≈ 6.65 µM). The “MIC E. coli D31 J. Wilson” value against E. coli D31 J. Wilson was determined as 2 µg/mL (≈ 0.831 µM). For the same molecule, in the data set on P. vulgaris ATCC 6896 (ATCC 6896), the “MIC P. vulgaris ATCC 6896” value was 128 µg/mL (≈ 53.2 µM). The “MIC E. coli SEQ 102ATCC # BAA-4 57” value against E. coli ATCC BAA-457 stood at 4 µg/mL (≈ 1.66 µM). In the data set on K. pneumoniae ATCC 27799, the “MIC K. pneumoniae ATCC 27799” value turned out to be 16 µg/mL (≈ 6.65 µM). For the same molecule, the “MIC K. pneumoniae K6 ATCC 700603” value in [5] was determined as 8 µg/mL (≈ 3.33 µM). The “MIC M. luteus 10240” value in the data set on M. luteus 10240 is 4 µg/mL (≈ 1.66 µM). Also, the “MIC E. coli BL21 A1” value against E. coli BL21 A1 amounted to 8 µg/mL (≈ 3.33 µM).

As for `CC[C@H](C)[C@H](NC(=O)[C@H](CCCN)NC(=O)[C@H](CCCNC(=N)N)NC(=O)[C@@H]1C[C@@H](O)CN1C(=O)[C@@H]1CCCN1C(=O)[C@H](CCCNC(=N)N)NC(=O)[C@@H]1CCCN1C(=O)[C@H](CCCNC(=N)N)NC(=O)[C@@H]1CCCN1C(=O)[C@H](CC(C)C)NC(=O)[C@H](Cc1ccc(O)cc1)NC(=O)[C@@H]1CCCN1C(=O)[C@@H]1CCCN1C(=O)[C@H](CCCCN)NC(=O)[C@H](CC(=O)O)NC(=O)[C@@H](N)C(C)C)C(=O)N[C@@H](Cc1ccc(O)cc1)C(=O)N[C@@H](CC(N)=O)C(=O)N[C@@H](CCCN)C(N)=O` [compound 107] (H-VDKPPYLPRPRP[Hyp]R[Orn]IYN[Orn]-NH2), the “MIC E. coli DSM 10233” value in data set [6] came out at 16 µg/mL (≈ 6.89 µM). Besides, the “MIC P. aeruginosa DSM 3227” value in data set [7] was over 32 µg/mL. Also, the “MIC K. pneumoniae DSM 681” value in data set [8] amounted to 4 µg/mL (≈ 1.72 µM). Moreover, the “MIC M. luteus 10240” value against M. luteus 10240 is 4 µg/mL (≈ 1.72 µM). In the data set on E. coli BL21 A1, the “MIC E. coli BL21 A1” value was determined as 4 µg/mL (≈ 1.72 µM).

With `CC[C@H](C)[C@H](NC(=O)[C@@H](CCCNC(=N)N)NC(=O)[C@H](CCCNC(=N)N)NC(=O)[C@@H]1CCCN1C(=O)[C@@H]1CCCN1C(=O)[C@H](CCCNC(=N)N)NC(=O)[C@@H]1CCCN1C(=O)[C@H](CCCNC(=N)N)NC(=O)[C@@H]1CCCN1C(=O)[C@H](CC(C)C)NC(=O)[C@H](Cc1ccc(O)cc1)NC(=O)[C@@H]1CCCN1C(=O)[C@@H]1CCCN1C(=O)[C@H](CCCCN)NC(=O)[C@H](CC(=O)O)NC(=O)[C@@H](N)C(C)C)C(=O)N[C@@H](Cc1ccc(O)cc1)C(=O)N[C@@H](CC(N)=O)C(=O)N[C@@H](CCCNC(=N)N)C(N)=O` [compound 111] (H-VDKPPYLPRPRPPR[dR]IYNR-NH2), the “MIC E. coli DSM 10233” value in data set [6] stood at 4 µg/mL (≈ 1.67 µM). For the same molecule, the “MIC K. pneumoniae DSM 681” value in data set [8] was determined as 4 µg/mL (≈ 1.67 µM). Also, the “MIC M. luteus 10240” value against M. luteus 10240 amounted to 4 µg/mL (≈ 1.67 µM). Further, the “MIC E. coli BL21 A1” value in the data set with E. coli BL21 A1 was found to be 4 µg/mL (≈ 1.67 µM).

For the molecule `CC[C@@H](C)[C@@H](NC(=O)[C@@H](Cc1ccc(O)cc1)NC(=O)[C@@H](CC(N)=O)NC(=O)[C@H](N)CCCNC(=N)N)C(=O)N[C@H](CCCNC(=N)N)C(=O)N[C@H](CCCNC(=N)N)C(=O)N1CCC[C@@H]1C(=O)N1CCC[C@@H]1C(=O)N[C@H](CCCNC(=N)N)C(=O)N1CCC[C@@H]1C(=O)N[C@H](CCCNC(=N)N)C(=O)N1CCC[C@@H]1C(=O)N[C@H](CC(C)C)C(=O)N[C@H](Cc1ccc(O)cc1)C(=O)N1CCC[C@@H]1C(=O)N1CCC[C@@H]1C(=O)N[C@H](CCCCN)C(=O)N[C@H](CC(=O)O)C(=O)N[C@@H](C(N)=O)C(C)C` [compound 117] (H-[dR][dN][dY][dI][dR][dR][dP][dP][dR][dP][dR][dP][dL][dY][dP][dP][dK][dD][dV]-NH2), the “MIC E. coli DSM 10233” value in [6] was over 32 µg/mL. Further, in data set [8], the “MIC K. pneumoniae DSM 681” value is over 32 µg/mL. In the data set on M. luteus 10240, the “MIC M. luteus 10240” value was determined as 32 µg/mL (≈ 13.4 µM). In the data set on E. coli BL21 A1, the “MIC E. coli BL21 A1” value was found to be 64 µg/mL (≈ 26.8 µM).

Consider “H-VDKPPYLPRPRPPRRIYNNR-NH2 [compound 15]”, for which the “MIC E. coli 045-849 SENTRY” value in the data set on E. coli 045-849 SENTRY (045-849 SENTRY) is 4 µg/mL. The “MIC S. typhimurium s5 (J. Weiser)” value in data set [1] amounted to 8 µg/mL. Moreover, the “MIC P. mirabilis ATCC 7002” value with P. mirabilis ATCC 7002 (¼ Muller-Hinton medium) was “>”. Further, the “MIC S. typhimurium ATCC 14028” value in data set [2] was 4 µg/mL. The “MIC S. typhimurium ATCC 700408” value in data set [3] worked out at 0.5 µg/mL. Moreover, the “MIC K. pneumoniae 012-3131” value in the data set with K. pneumoniae 012-3131 was determined as 16 µg/mL. Moreover, the “MIC P. aeruginosa 10 J. Wilson” value in data set [4] was found to be 16 µg/mL. In addition, the “MIC E. coli D31 J. Wilson” value in the data set with E. coli D31 J. Wilson stood at 16 µg/mL. Besides, in the data set on P. vulgaris ATCC 6896 (¼ Muller-Hinton medium), the “MIC P. vulgaris ATCC 6896” value is listed as “>”. The “MIC E. coli SEQ 102ATCC # BAA-4 57” value in the data set with E. coli ATCC BAA-457 was 32 µg/mL. Moreover, in the data set on K. pneumoniae ATCC 27799, the “MIC K. pneumoniae ATCC 27799” value was 64 µg/mL. Also, the “MIC K. pneumoniae K6 ATCC 700603” value in data set [5] was determined as 32 µg/mL. Further, in the data set on M. luteus 10240, the “MIC M. luteus 10240” value was determined as 8 µg/mL. Besides, in the data set on E. coli BL21 A1, the “MIC E. coli BL21 A1” value turned out to be 8 µg/mL.

VDKPPYLPRPRPPRRIYNNR [compound 14]: in the data set on E. coli 045-849 SENTRY (¼ Muller-Hinton medium), the “MIC E. coli 045-849 SENTRY” value turned out to be 4 µg/mL. Also, the “MIC K. pneumoniae 012-3131” value against K. pneumoniae 012-3131 was determined as 32 µg/mL. Moreover, in the data set on E. coli D31 J. Wilson, the “MIC E. coli D31 J. Wilson” value was found to be 32 µg/mL. The “MIC E. coli SEQ 102ATCC # BAA-4 57” value against E. coli ATCC BAA-457 is 64 µg/mL. The “MIC K. pneumoniae ATCC 27799” value in the data set on K. pneumoniae ATCC 27799 is 128 µg/mL. The “MIC K. pneumoniae K6 ATCC 700603” value in [5] worked out at 64 µg/mL. For the same molecule, in the data set with M. luteus 10240, the “MIC M. luteus 10240” value was determined as 16 µg/mL. In [9], the “Half-life in 25% mouse serum” value is recorded as under 30 min. Also, the “MIC E. coli BL21 A1” value against E. coli BL21 A1 is 8 µg/mL.
